Experimental data as given in US20250108119A1, “NOVEL STEROID PAYLOADS, STEROID LINKERS, ADCs CONTAINING AND USE THEREOF” (IMMUNEXT, INC., priority 2021, published 2025).
“Also recorded” adds a separate entry of the source.

Experiments:
[1] = tested on: peritoneal resident macrophages (PRM); test: In vivo treatment/ex vivo PRM activation, TNFα and IL-6 in supernatant; parameters: species or system hVISTA mice; details: linker/payloads as anti-VISTA conjugates
Procedure: Based thereon we developed a model to allow us to evaluate long-term anti-inflammatory impact of ADC on specific target populations, such as PRMs. […] In the absence of GC treatment, after 2h PRMs become highly activated as shown by increases in cytokine production. […] The objective of these studies was to evaluate the efficacy and pharmacodynamic range of INX human VISTA antibodies conjugated to a glucocorticoid payload as compared to free Dex.
After euthanasia, mice were injected in the peritoneal cavity with 7 ml of PBS/0.5% BSA/2 mM EDTA. After a brief massage of the peritoneum, a small incision was performed and the peritoneal lavage collected. PRM were isolated using negative selection (Miltenyi kit, ref 130-110-434). Spleen were dissected and dissociated mechanically; monocytes were isolated using […] (Stem Cell, EasySep™ Mouse CD11b Positive Selection Kit II).
PRMs were resuspended in RPMI 1640 with 10% FBS, 10 mM Hepes, Penicillin/Streptomycin and glutamine and 100,000 cells were plated per well in a 96-well tissue culture plate. Supernatants were collected at 2 and 24h post plating and stored at −80° C. […]
• BioLegend (cat #430904) ELISA MAX Deluxe Set Mouse TNF-α • BioLegend (cat #431304) ELISA MAX Deluxe Set Mouse IL-6
ELISAs were conducted following the manufacturer's included protocol.

[2] = tested on: human PBMC; test: Cytokine production (IL-1β, IL-6) at 24 hr by human PBMC incubated with 1 ng/mL LPS; assay type: cell-based; details: free steroid payloads, serial dilutions, 1 ng/mL LPS, 24 hr
Procedure, shortened: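 Human PBMC were stimulated with 1 ng/mL LPS together with serial dilutions of steroid payloads or glucocorticoid conjugates, spanning up to 8,000 nM down to 0.032 nM depending on the series. IL-1β and IL-6 were measured at 24 hr from technical duplicates, with 1-2 donors. Values above the ULOQ were extrapolated.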

[3] = tested on: LPS stimulated human PBMCs; test: LPS stimulated human PBMC, IL-1β and IL-6 ELISA; assay type: cell-based; details: for inhibition of IL-1β and IL-6: Experiment 12: free payloads 1000-0.15 nM
Procedure, shortened: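 Human PBMC (1-2 healthy donors), 150,000 cells/well, treated with test agents at 1,000 nM down to 1 nM or 0.2 nM, in duplicate. LPS at 1 ng/ml added immediately after free payload or 4 h after conjugates; IL-1β and IL-6 in supernatants measured by ELISA.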

[4] = Experiment 3: free payload 1000-0.2 nM, 24 hr, n=2 donors

Row | Compound | inhibition of IL-1β production [2] | inhibition of IL-6 production [2] | also measured
1 | C[C@H](NC(=O)CBr)C(=O)N[C@@H](C)C(=O)NC12CC(Cc3ccc([C@@H]4O[C@@H]5C[C@H]6[C@@H]7CCC8=CC(=O)C=C[C@]8(C)[C@H]7[C@@H](O)C[C@]6(C)[C@]5(C(=O)CO)O4)cc3)(C1)C2 [INX R, (S)-2-(2-bromoacetamido)-N—((S)-1-((3-(4-((6aR,6bS,7S,8aS,8bS,10R,11aR, 12aS,12bS)-7-hydroxy-8b-(2-hydroxyacetyl)-6a,8a-dimethyl-4-oxo-2,4,6a,6b,7,8,8a,8b,11a,12,12a,12b-dodecahydro-1H-naphtho[2′,1′:4,5]indeno[1,2-d][1,3]dioxol-10-yl)benzyl)bicyclo[1.1.1]pentan-1-yl)amino)-1-oxopropan-2-yl) propanamide] | – | – | potency in PRM cytokine model when dosed 7 days early (conclusions) [1]: show similar potency when dosed 7 days early
2 | C[C@]12C=CC(=O)C=C1CC[C@@H]1[C@@H]2[C@@H](O)C[C@@]2(C)[C@H]1C[C@H]1O[C@@H](c3ccc(Cc4cccc(NC(=O)[C@H](CCC(=O)O)NC(=O)CNC(=O)CBr)c4)cc3)O[C@]12C(=O)CO [INX J, (S)-4-(2-(2-bromoacetamido)acetamido)-5-((3-(4-((6aR,6bS,7S,8aS,8bS,10R,11aR,12aS,12bS)-7-hydroxy-8b-(2-hydroxyacetyl)-6a,8a-dimethyl-4-oxo-2,4,6a,6b,7,8,8a,8b,11a,12,12a,12b-dodecahydro-1H-naphtho[2′,1′:4,5]indeno[1,2-d][1,3]dioxol-10-yl)benzyl)phenyl)amino)-5-oxopentanoic acid, reference compound] | – | – | potency in PRM cytokine model when dosed 7 days early (conclusions) [1]: show similar potency when dosed 7 days early
3 | C[C@]12C=CC(=O)C=C1[C@@H](F)C[C@H]1[C@@H]3C[C@H]4O[C@@H](c5ccc(CC6CC7(CC(N)C7)C6)cc5)O[C@@]4(C(=O)CO)[C@@]3(C)C[C@H](O)[C@@]12F (stereo partly drawn) [INX-SM-25, (2S,6aS,6bR,7S,8aS,8bS,10R,11aR,12aS,12bS)-10-(4-((6-aminospiro[3.3]heptan-2-yl)methyl)phenyl)-2,6b-difluoro-7-hydroxy-8b-(2-hydroxyacetyl)-6a,8a-dimethyl-1,2,6a,6b,7,8,8a,8b,11a,12,12a,12b-dodecahydro-4H-naphtho[2′,1′:4,5]indeno[1,2-d][1,3]dioxol-4-one] | robust inhibition | – | inhibition of IL-1β production ([3]; Experiment 8: free payload 1000-0.5 nM): robust inhibition in IL-1B production
4 | C[C@]12C=CC(=O)C=C1CC[C@@H]1[C@@H]2[C@@H](O)C[C@@]2(C)[C@H]1C[C@H]1CN(Cc3ccc(CC45CC(N)(C4)C5)cc3)C[C@]12C(=O)CO [INX-SM-17, (6aR,6bS,7S,8aS,8bS,11aR,12aS,12bS)-10-(4-((3-aminobicyclo[1.1.1]pentan-1-yl)methyl)benzyl)-7-hydroxy-8b-(2-hydroxyacetyl)-6a,8a-dimethyl-1,6a,6b,7,8,8a,8b,9,10,11,11a,12,12a,12b-tetradecahydronaphtho[2′,1′:4,5]indeno[1,2-c]pyrrol-4 (2H)-one 2,2,2-trifluoroacetate] | weakly inhibits | – | inhibition of IL-1β and IL-6 [3]: only weakly inhibit IL-1β
5 | C[C@]12C=CC(=O)C=C1CC[C@@H]1[C@@H]2[C@@H](O)C[C@@]2(C)[C@H]1C[C@H]1CN(c3ccc(CC45CC(N)(C4)C5)cc3)C[C@]12C(=O)CO [INX-SM-34, (6aR,6bS,7S,8aS,8bS,11aR,12aS,12bS)-10-(4-((3-aminobicyclo[1.1.1]pentan-1-yl)methyl)phenyl)-7-hydroxy-8b-(2-hydroxyacetyl)-6a,8a-dimethyl-1,6a,6b,7,8,8a,8b,9,10,11,11a,12,12a,12b-tetradecahydronaphtho[2′,1′:4,5]indeno[1,2-c]pyrrol-4 (2H)-one 2,2,2-trifluoroacetate] | weakly inhibit | weakly inhibit | inhibition of IL-1β and IL-6 [3]: weakly inhibit IL-1β and IL-6
6 | C[C@]12C=CC(=O)C=C1CC[C@@H]1[C@@H]2[C@@H](O)C[C@@]2(C)[C@H]1C[C@H]1CN(c3ccc(CC4CC5(CC(N)C5)C4)cc3)C[C@]12C(=O)CO (stereo partly drawn) [INX-SM-37, (6aR,6bS,7S,8aS,8bS,11aR,12aS,12bS)-10-(4-((6-aminospiro[3.3]heptan-2-yl)methyl)phenyl)-7-hydroxy-8b-(2-hydroxyacetyl)-6a,8a-dimethyl-1,6a,6b,7,8,8a,8b,9,10,11,11a,12,12a,12b-tetradecahydronaphtho[2′,1′:4,5]indeno[1,2-c]pyrrol-4 (2H)-one] | weakly inhibits | – | potency of free payloads (conclusions) [3]: lowest potency among the R stereoisomers of the series; inhibition of IL-1β ([3]; Experiment 11: free payloads 1000-0.15 nM): weakly inhibits IL-1β
7 | C[C@]12C=CC(=O)C=C1CC[C@@H]1[C@@H]2[C@@H](O)C[C@@]2(C)[C@H]1C[C@H]1O[C@@H](C34CC(Cc5cccc(N)c5)(C3)C4)O[C@]12C(=O)CO [INX-SM-4, (6aR,6bS,7S,8aS,8bS,10R,11aR,12aS,12bS)-10-(3-(3-aminobenzyl)bicyclo[1.1.1]pentan-1-yl)-7-hydroxy-8b-(2-hydroxyacetyl)-6a,8a-dimethyl-1,2,6a,6b,7,8,8a,8b,11a,12,12a,12b-dodecahydro-4H-naphtho[2′,1′:4,5]indeno[1,2-d][1,3]dioxol-4-one] | inhibit | inhibit | inhibition of IL-1β and IL-6 production ([3]; Experiment 1: free payload 1000-1 nM, 1 ng/ml LPS, 24 hr, n=1 donor): inhibit both IL-1β and IL-6 production; inhibition of IL-1β production ([3]; Experiment 2: free payload 1000-1 nM, 24 hr, n=1 donor): show inhibition in IL-1β production
8 | C[C@]12C=CC(=O)C=C1CC[C@@H]1[C@@H]2[C@@H](O)C[C@@]2(C)[C@H]1C[C@H]1O[C@@H](c3ccc(CC45CCC(N)(CC4)CC5)cc3)O[C@]12C(=O)CO [INX-SM-10, (6aR,6bS,7S,8aS,8bS,11aR,12aS,12bS)-10-(4-((4-aminobicyclo[2.2.2]octan-1-yl)methyl)phenyl)-7-hydroxy-8b-(2-hydroxyacetyl)-6a,8a-dimethyl-1,2,6a,6b,7,8,8a,8b,11a,12,12a,12b-dodecahydro-4H-naphtho[2′,1′:4,5]indeno[1,2-d][1,3]dioxol-4-one] | robust inhibition | robust inhibition | inhibition of IL-1β and IL-6 production ([3]; Experiment 5: free payload 1000-0.5 nM, 24 hr): robust inhibition in IL-1β (top) and IL-6 (bottom) production
9 | C[C@]12C=CC(=O)C=C1CC[C@@H]1[C@@H]2[C@@H](O)C[C@@]2(C)[C@H]1C[C@H]1O[C@@H](c3ccc(CC45C6C7C4C4C5C6C74N)cc3)O[C@]12C(=O)CO (stereo partly drawn) [INX-SM-9, (6aR,6bS,7S,8aS,8bS,10R,11aR,12aS,12bS)-10-(4-((4-aminocuban-1-yl)methyl)phenyl)-7-hydroxy-8b-(2-hydroxyacetyl)-6a,8a-dimethyl-1,2,6a,6b,7,8,8a,8b,11a,12,12a,12b-dodecahydro-4H-naphtho[2′,1′:4,5]indeno[1,2-d][1,3]dioxol-4-one] | inhibit | inhibit | inhibition of IL-1β production [3, 4]: dose dependent inhibition in IL-1β production
10 | C[C@]12C=CC(=O)C=C1CC[C@@H]1[C@@H]2[C@@H](O)C[C@@]2(C)[C@H]1C[C@H]1O[C@@H](c3ccc(CC4COC5(CNC5)C4)cc3)O[C@]12C(=O)CO (stereo partly drawn) [INX-SM-31, (6aR,6bS,7S,8aS,8bS,11aR,12aS,12bS)-10-(4-((5-oxa-2-azaspiro[3.4]octan-7-yl)methyl)phenyl)-7-hydroxy-8b-(2-hydroxyacetyl)-6a,8a-dimethyl-1,2,6a,6b,7,8,8a,8b,11a,12,12a,12b-dodecahydro-4H-naphtho[2′,1′:4,5]indeno[1,2-d][1,3]dioxol-4-one] | inhibit | inhibit | potency of free payloads (conclusions) [3]: lowest potency among the R stereoisomers of the series; inhibition of IL-1β production [3, 4]: dose dependent inhibition in IL-1β production; also recorded: the least potent compound among these compounds tested
11 | C[C@]12C=CC(=O)C=C1CC[C@@H]1[C@@H]2[C@@H](O)C[C@@]2(C)[C@H]1C[C@H]1O[C@@H](c3ccc(Cc4ncc(N)s4)cc3)O[C@]12C(=O)CO [INX-SM-7, (6aR,6bS,7S,8aS,8bS,10R,11aR,12aS,12bS)-10-(4-((5-aminothiazol-2-yl)methyl)phenyl)-7-hydroxy-8b-(2-hydroxyacetyl)-6a,8a-dimethyl-1,2,6a,6b,7,8,8a,8b,11a,12,12a,12b-dodecahydro-4H-naphtho[2′,1′:4,5]indeno[1,2-d][1,3]dioxol-4-one] | inhibition | – | inhibition of IL-1β production ([3]; Experiment 6: free payload 1000-0.16 nM, 24 hr): dose-dependent inhibition in IL-1β production
